≈ marks a conversion by molar mass, not a printed value. Where “and” joins values, the source holds several entries; their conditions need not be identical. Equal values may be shown once. Read-outs that look alike come from different tables or passages of the source.
Tests used:
[1] = system: H37Rv strain of Mycobacterium tuberculosis; test: microbe, parasite or virus in culture; assay type: cell-based
[2] = system: RIF^R M. tuberculosis strain 3185; assay type: cell-based; conditions: strain 3185
[3] = system: H37Rv strain of Mycobacterium tuberculosis; conditions: background statement; cited from earlier work
[4] = system: M. tuberculosis H37Rv; test: In vivo efficacy, mice infected i.v. with M. tuberculosis, CFU in spleen and lungs; parameters: species or system C57BL/6 mice
[5] = system: RIF^R M. tuberculosis isolate 2482; test: microbe, parasite or virus in culture; assay type: cell-based; conditions: strain 2482
[6] = system: M. tuberculosis H37Rv (Pasteur); test: Rapid in vivo model of TB, body weight of infected mice; parameters: species or system C3H female mice; conditions: Rif (2 mg/kg)-EMB (10 mg/kg) combination
[7] = system: RIF^R M. tuberculosis strain 2482; assay type: cell-based; conditions: strain 2482
[8] = system: M. tuberculosis H37Rv; test: Standard chronic mouse model of tuberculosis, CFU in lung; assay type: in vivo, C57BL/6 female mice; conditions: INH+RIF+EMB at 25, 20 and 100 mg/kg, wk 4
[9] = system: M. tuberculosis H37Rv; test: MIC by BACTEC 460; assay type: cell-based, Mycobacterium tuberculosis; conditions: Mycobacterium tuberculosis, H37RV, reference in head of Table 11; read-out: BACTEC MIC of EMB
[10] = system: wild type of M.tb; test: MIC, secondary screening, wild type; assay type: cell-based, Mycobacterium tuberculosis; conditions: WT
[11] = system: RIF^R M. tuberculosis isolate 3185; test: microbe, parasite or virus in culture; assay type: cell-based
[12] = system: monkey kidney cells (Vero); test: In vitro toxicity, Vero cells; assay type: cell-based; conditions: Primates
Description: Twenty six compounds (including 37, 59 and 109) were tested in an in vitro model of toxicity using monkey kidney cells (Vero) and human cervical cancer cells (HeLa) using methods well known to those skilled in the art. The data from this toxicity testing and the MIC data were used to calculate a selectivity index (SI), the ratio of IC50:MIC (Table 15). Selectivity Indexes were ranging from 1.76 to 16.67.

[13] = assay type: in vitro ADME; conditions: 6 h
Description: (§1) Initially, analytical methods for determination of the compounds had been developed that allowed to carry out all the PK experiments, sec FIG. 29. Here is a brief description of the experiment: (1) plasma spiked with tested compounds and 10 uL of Terfenadine or plasma samples (200 uL) added; (2) ACN (2 mL) added to precipitate protein and spin at 2,500 rpm; (3) evaporate supernatant to dryness; (4) add 200 uL of the diluting solvent: methanol (with 0.1% of trifluoroacetic acid): ammonium acetate (80/20); (5) vortex, spin, and use supernatant; (6) run LC/MS/MS on Sciex API 3000.
Biostability studies of the compounds in plasma were carried out using concentrations 1 and 15 mg/ml. The compounds were incubated for 1, 2, 3 & 6 hr at 37° C. (Table 18).

[14] = Toxicity, dose escalation study in mice
Description: Toxicity was assessed using a dose escalation study. This study was performed with ten C57BL/6 mice per candidate. Every two days, the mice were administered an increased concentration of the drug, and monitored for detrimental effects. The administration scheme was 50, 100, 200, 400, 600, 800 and 1000 mg/kg.

[15] = Maximum tolerated dose, one-time gavage dose in mice; assay type: in vivo
Description: […] Each dose of each compound consisted of one group of 3 mice. Monitoring of the mice was done twice a day for the duration of the experiment. […] The MTD (mg/kg) is the highest dose that results in no lethality/tissue abnormality.
• 1. […] The compounds are dissolved in the appropriate concentration of ethanol in distilled water and administered in a volume of 0.2 ml per mouse. • 2. Observation of mice: Mice will be observed 4 and 6 hours post administration, then twice daily for one week. Survival and body weight of mice will be closely monitored throughout the study. • 3. […] Critical organs will be aseptically removed and observed; tissues from the liver, heart, and kidneys are extracted and placed into 10% formalin solution. These fixed tissues are sectioned and examined for abnormalities resulting from drug toxicity.

[16] = system: cells; test: LD50 for selectivity index (Table 10); assay type: cell-based, Mycobacterium tuberculosis; conditions: for SI (Selectivity Index): LD50 : MIC
Source text: Table 10 lists MIC and LD50 data for selected compounds. […] Table 11 lists MIC data for purified substituted ethylene diamines in comparison to ethambutol (EMB).

[17] = in vivo; parameters: species or system mice; conditions: mouse
Description: as §1
Pilot PK study of the compounds 37, 59, and 109 in mice was conducted using a cassette dosing: all the three analogs were formulated together in saline at 1.5 mg/mL, and administered to mice simultaneously orally at 25 mg/kg, peritoneally at 6 mg/kg, and intravenously. […] Obtained data are presented on FIGS. 30, 31, and 32 (tested compounds were studied under the NCI′ indexation NSC) and summarized in Table 19.

[18] = Mycobacterium tuberculosis, value in brackets, read-out: MIC (or uM)
[19] = Mycobacterium tuberculosis, EMB, RL241, Cmpd#59 as 2HCl salt, Cmpd#109 as 2CF3COOH salt, read-out: MIC
[20] = Mycobacterium tuberculosis, H37RV, Table 10, from uM and MW, read-out: MIC
[21] = Mycobacterium tuberculosis, H37RV, Table 10, read-out: MIC
[22] = Mycobacterium tuberculosis, H37RV, Table 15, read-out: MIC
[23] = concentration at which 50% of the cells are killed

With `CC[C@@H](CO)NCCN[C@@H](CC)CO` [EMB, Ethambutol, reference compound] the “MIC” value [1] was 8.37 µM and 7.25 µM, the MIC ([1]; Mycobacterium tuberculosis, H37RV, read-out: MIC) was 7.19 µM and the “interaction of 0.5 MIC ethambutol with rifampicin” value [2] was “synergy was not observed”. For the same molecule, the “Minimum Inhibition Concentration (MIC)” value [3] was “about 5 μg/ml”, the “decrease of load of bacteria in organs” value ([4]; during 4-6 weeks of chemotherapy) was 1.0-2.0 logs and the “concentration to which the strain was susceptible” value [5] was 2.5 mg/L. The “body weight of infected mice” value [6] was “No improvement”, the “interaction of 0.5 MIC ethambutol with rifampicin” value [7] was “did not show any additive or synergistic activity” and the CFU in lung [8] was 3.7 log10CFU. It also gave an MIC [9] of 2.5 µg/mL, an MIC [10, 18] of 11.1 µM and an MIC [10, 19] of 3.12 µg/mL. The MIC ([10]; EMB, RL241, Cmpd#59 as 2HCl salt, Cmpd#109 as 2CF3COOH salt) was 1.6 to 1.8 µg/mL, the MIC ([11]; Mycobacterium tuberculosis, read-out: MIC (BACTEC)) was 2.5 µg/mL (≈ 12.2 µM) and the “concentration to which the strain was susceptible” value ([11]; strain 3185) was 2.5 mg/L.

Molecule `CC1(C)C2CCC(CNCCNCC(c3ccccc3)c3ccccc3)[C@@H]1C2` (stereo partly drawn) [Compound 37, N-(2,2-Diphenylethyl)-N′-(−)-cis-(myrtanyl)ethane-1,2-diamine] has an MIC [1, 20] of 7.75 µg/mL, an MIC [1, 21] of 15.6 µM and an MIC [1, 22] of 7.8 µM. The IC50 [12] was 32 µM, the “Biostability in plasma (% ↓)” value ([13]; dog) was “stable” and the “Biostability in plasma (% ↓)” value ([13]; human) was 20% ↓. The “Biostability in plasma (% ↓)” value ([13]; mouse) was “stable”, the “Biostability in plasma (% ↓)” value ([13]; rat) was 35% ↓ and the fatal dose ([14]; C57BL/6, mouse, in vivo, 2 days) was 100 mg/kg. The toxic dose ([14]; dose escalation) was 100 mg/kg, the Day of death ([15]; 37 at 100 mg/kg (Table 16)) was 1 and the Mice ([15]; 37 at 100 mg/kg (Table 16), day 1) was 2 to 4 h. The Mice ([15]; 37 at 100 mg/kg (Table 16), day 2) was 2, the Mice ([15]; 37 at 100 mg/kg (Table 16), day 3) was 2 and the Mice ([15]; 37 at 100 mg/kg (Table 16), day 4) was 2. For the same molecule, the Mice ([15]; 37 at 100 mg/kg (Table 16), day 6) was 2, the Mice ([15]; 37 at 100 mg/kg (Table 16), day 7) was 2 and the Mice ([15]; 37 at 100 mg/kg (Table 17), day 1) was 3. The Mice ([15]; 37 at 100 mg/kg (Table 17), day 2) was 3, the Mice ([15]; 37 at 100 mg/kg (Table 17), day 3) was 3 and the Mice ([15]; 37 at 100 mg/kg (Table 17), day 4) was 3. For the same molecule, the Mice ([15]; 37 at 100 mg/kg (Table 17), day 5) was 3, the Mice ([15]; 37 at 100 mg/kg (Table 17), day 6) was 3 and the Mice ([15]; 37 at 100 mg/kg (Table 17), day 7) was 3. The Mice ([15]; 37 at 300 mg/kg, day 1) was 3, the Mice ([15]; 37 at 300 mg/kg, day 2) was 3 and the Mice ([15]; 37 at 300 mg/kg, day 3) was 3. It also gave a Mice ([15]; 37 at 300 mg/kg, day 4) of 3, a Mice ([15]; 37 at 300 mg/kg, day 5) of 3 and a Mice ([15]; 37 at 300 mg/kg, day 6) of 3. For the same molecule, the Mice ([15]; 37 at 300 mg/kg, day 7) was 3, the changes in organs ([15]; mice surviving one week) was “No visible changes in organs” and the “SI (Selectivity Index)” value [16] was 2.048. For the same molecule, the “LD50” value [16, 23] was 32 µM, the “LD50” value ([16]; from uM and MW) was 15.872 µg/mL and the AUC ([17]; ip, 6 mg/kg) was 1370 ng·h/mL. The Cmax ([17]; ip, 6 mg/kg) was 630 ng/mL, the “Urine excretion (%)” value ([17]; ip, 6 mg/kg) was less than 0.01% and the bioavailability ([17]; ip, 6 mg/kg) was 72%. The half-life ([17]; ip, 6 mg/kg) was 4.9 h, the AUC ([17]; iv, 3 mg/kg) was 954 ng·h/mL and the Cmax ([17]; iv, 3 mg/kg) was 970 ng/mL. The “Urine excretion (%)” value ([17]; iv, 3 mg/kg) was “.71%”, the clearance ([17]; iv, 3 mg/kg) was 58.8 mL/min/kg and the half-life ([17]; iv, 3 mg/kg) was 4.8 h. For the same molecule, the AUC ([17]; po, 25 mg/kg) was 1600 ng·h/mL, the Cmax ([17]; po, 25 mg/kg) was 263 ng/mL and the bioavailability ([17]; po, 25 mg/kg) was 3.3%.

Work on `C[C@@H]1[C@H]2C[C@@H](C[C@H]1NCCNC1CCCCCCC1)C2(C)C` [Compound 59, N-(Cyclooctyl)-N′-(1R, 2R, 3R, 5S)-(−)-isopinocampheylethane-1,2-diamine] yielded an MIC [1, 20] of 6.66 µg/mL, an MIC [1, 21] of 15.6 µM and an MIC [1, 22] of 15.6 µM. The IC50 [12] was 36 µM, the “anti-tuberculosis activity compared with EMB” value ([4]; 10 mg/kg, B6 mice, 5×10^5 CFU, chemotherapy from day 20) was “comparable to that of EMB at 100 mg/kg” and the “Biostability in plasma (% ↓)” value ([13]; dog) was “stable”. For the same molecule, the “Biostability in plasma (% ↓)” value ([13]; human) was “stable”, the “Biostability in plasma (% ↓)” value ([13]; mouse) was “stable” and the “Biostability in plasma (% ↓)” value ([13]; rat) was “stable”. For the same molecule, the tolerated dose ([14]; C57BL/6, mouse, in vivo) was 1000 mg/kg, the “SI (Selectivity Index)” value [16] was 2.048 and the “LD50” value [16, 23] was 32 µM. The “LD50” value ([16]; from uM and MW) was 13.632 µg/mL, the MIC [10, 18] was 0.13 µM and the MIC [10, 19] was 0.05 µg/mL. For the same molecule, the “PK profiling (AUC, Cmax)” value [17] was “relatively poor PK profiling”, the AUC ([17]; ip, 6 mg/kg) was 272 ng·h/mL and the Cmax ([17]; ip, 6 mg/kg) was 217 ng/mL. For the same molecule, the “Urine excretion (%)” value ([17]; ip, 6 mg/kg) was less than 0.01%, the bioavailability ([17]; ip, 6 mg/kg) was 35% and the half-life ([17]; ip, 6 mg/kg) was 9.7 h. The AUC ([17]; iv, 3 mg/kg) was 384 ng·h/mL, the Cmax ([17]; iv, 3 mg/kg) was 296 ng/mL and the “Urine excretion (%)” value ([17]; iv, 3 mg/kg) was 1.9%. For the same molecule, the clearance ([17]; iv, 3 mg/kg) was 134 mL/min/kg, the half-life ([17]; iv, 3 mg/kg) was 6.4 h and the AUC ([17]; po, 25 mg/kg) was 169 ng·h/mL. For the same molecule, the Cmax ([17]; po, 25 mg/kg) was 28.7 ng/mL and the bioavailability ([17]; po, 25 mg/kg) was 0.9%.
